Experimental data taken from patent US20230285402A1, “Compositions and Methods of Modulating Short-Chain Dehydrogenase Activity” (BOARD OF REGENTS OF THE UNIVERSITY OF TEXAS SYSTEM, priority 2013, published 2023).
Read-outs that look alike come from different tables or passages of the source.

What was measured:
[1] = tested on: 15-PGH-luciferase fusion protein reporter in the Vaco-9M (V9M) cell line; experiment: 15-PGDH-luciferase fusion reporter induction in V9M cells; type: cell-based
Procedure: Some residual activity is seen for isomer B when added at 3.2 μM concentration. The small residual activity of isomer A may be due to possible 3% contamination with some residual isomer B.

recombinant 15-PGDH [2] = molecular target: T1, recombinant 15-PGDH (Homo sapiens (Human), UniProt P15428); experiment: Melting temperature shift of recombinant 15-PGDH (SYPRO Orange); type: binding
T1 sequence (P15428 whole entry): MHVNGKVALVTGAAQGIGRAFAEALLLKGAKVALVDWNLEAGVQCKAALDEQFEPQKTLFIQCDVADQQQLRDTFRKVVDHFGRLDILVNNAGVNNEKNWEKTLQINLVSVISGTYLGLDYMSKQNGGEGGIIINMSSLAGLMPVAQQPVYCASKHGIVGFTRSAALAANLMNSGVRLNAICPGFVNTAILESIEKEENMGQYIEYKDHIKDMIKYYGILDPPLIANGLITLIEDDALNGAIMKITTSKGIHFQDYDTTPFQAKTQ

recombinant 15-PGDH [3] = molecular target: T1, recombinant 15-PGDH; experiment: Inhibition of enzymatic activity of recombinant 15-PGDH in vitro (NADH generation); type: biochemical
A549 cells [4] = experiment: Cellular toxicity by CellTiter-Glo; type: cell-based; details: concentrations of up to 10 μM; 24 hours
Procedure: FIGS. 38(A-C) show assays of cellular toxicity on A549 cells at 24 hours of 15-PGDH inhibitors as assayed by CellTiter-Glo measurement.

A549 cells [5] = experiment: PGE2 in medium of IL1-beta stimulated A549 cells; type: cell-based; details: IL-1β 16 h, then compound 8 h
[6] = tested on: cell numbers in a cell culture assay; experiment: Toxicity in cell culture assay (decrease of cell numbers); type: cell-based; details: concentration needed to decrease cell numbers
Procedure: Time to inhibition refers to the time needed to inhibit the generation of NADH by 15-PGDH from the moment with drug is added into the reaction mix. Delta Tm refers to the shift in melting temperature of recombinant 15-PGDH in the presence of drug (with cofactor NADH also present). Concentration of Full Cell Line Reporter Induction refers to the concentration of drug that needs to be added to reporter cell line to achieve maximal induction of the 15-PGDH-luciferase gene fusion reporter cassette, as measured by luciferase assays. Hepatocyte stability refers to the half-life of compound in the presence of hepatocytes in culture. Toxicity refers to the concentration of compound needed to decrease cell numbers in a cell culture assay.

[7] = tested on: 15-PGDH-luciferase fusion reporter in V9m, LS174T and V503 cells; experiment: 15-PGDH-luciferase fusion reporter induction in colon cancer cell lines; type: cell-based
mice [8] = experiment: Homing of CFSE labeled donor bone marrow cells in lethally irradiated mice; type: in vivo, mouse; details: 10 mg/kg body weight
Procedure: Drugs are administered following radiation, following the transplant, and again at 8 hours after the transplant.

[9] = Chemical stability in aqueous solutions; type: physicochemical; details: broad pH range
[10] = Stability with human liver extracts; type: in vitro ADME
[11] = Stability with mouse liver extracts; type: in vitro ADME
[12] = tested on: PGE2 in colon, bone marrow, liver, lung; experiment: PGE2 in mouse tissues after IP injection; type: in vivo
Procedure: Shown is measurement by Elisa of PGE2 (ng PGE2/mg of tissue protein) from 4 mouse tissues: lung, liver, colon and bone marrow. […] Tissues were harvested for PGE2 assay at either 2 hour (2 h) or 3 hour (3 h) time points following drug injection.

mice [13] = experiment: Immediate toxicity after IP injection into mice; type: in vivo; details: over 24 hours; 50 mg/kg body weight IP
[14] = Stability with rat liver extracts; type: in vitro ADME

Compound: CCCC[S@](C)(O)c1sc2nc(-c3cccs3)cc(-c3ccccc3)c2c1N [SW033291 isomer B]
- concentration for full activity [1]: 0.1 µM
- melting temperature (recombinant 15-PGDH [2]; Differential Scanning Fluorimetry, shifted from 50.5): 68 °C
- IC50 lower than the parent racemic mixture (recombinant 15-PGDH [3]; vs racemic SW033291): 40%

Compound: CCCC[S+]([O-])c1sc2nc(-c3cccs3)ccc2c1N (stereo not drawn) [SW206980]
- effect on CellTitre-Glo levels (A549 cells [4]): No effect
- highest PGE2 level in medium (A549 cells [5]): 2500 pg/mL
- Toxicity [6]: >7.5 µM

Compound: CCCC[S+]([O-])c1sc2nc(-c3nccs3)ccc2c1N (stereo not drawn) [SW206992]
- effect on CellTitre-Glo levels (A549 cells [4]): No effect
- concentration at which maximal effect on PGE2 is attained (A549 cells [5]): 2.5 µM
- highest PGE2 level in medium (A549 cells [5]): 2100 pg/mL
- Toxicity [6]: >7.5 µM
- concentration needed to induce maximal reporter induction ([7]; exposure for 24 hours): ≥ 1000 nM
- Concentration for Full Cell Line Reporter Induction ([7]; maximal induction of reporter): >1 µM
- Δ Tm (NADH) (recombinant 15-PGDH [2]): 19 °C
- melting temperature (recombinant 15-PGDH [2]; 10 μM 15-PGDH, 20 uM compound, NAD(+) 100 μM, control 49): 59 degrees
- melting temperature (recombinant 15-PGDH [2]; 10 uM 15-PGDH, 20 uM compound, NADH 100 uM, control 55): 68.5 degrees
- IC50 (recombinant 15-PGDH [3]; Table 2 summary, read-out: IC50): 1.41 nM
- IC50 (recombinant 15-PGDH [3]; read-out: Enzyme Inhibitor IC50 (nM) at 5 nM 15-PGDH, 5 nM recombinant human 15-PGDH): 1.41 nM
- Time to inhibition (10 nM) (recombinant 15-PGDH [3]; time to inhibit NADH generation after drug is added, 10 nM): ~2 min

Compound: CCCC[S+]([O-])c1sc2nc(-c3nccs3)cc(-c3cnc(C)n3C)c2c1N (stereo not drawn) [formula (XIII)]
- homing of hematopoietic stem cells following bone marrow transplantation (mice [8]): increases homing
- chemical stability in aqueous solutions [9]: chemically stable
- stability when incubated with liver extracts [10]: chemically stable
- stability when incubated with liver extracts [11]: chemically stable
- PGE2 levels in the colon, lung, liver and bone marrow ([12]; IP dose of 10 mg/kg body weight): elevates PGE2 levels
- immediate toxicity (mice [13]): no immediate toxicity
- stability when incubated with liver extracts [14]: chemically stable
- concentration that inhibits recombinant 15-PGDH (recombinant 15-PGDH [3]; enzyme concentration approximately 6 nM): 3 nM

Compound: (+) SW209415
- time of peak PGE2 ([12]; after IP injection): 3 h
